Tested on: oxaliplatin induced hyperalgesia in the mouse
Assay: Cold plate test, oxaliplatin induced hyperalgesia in mice
Type: in vivo
Conditions: for Licking latency, 15 min after treatment / Licking latency, 30 min after treatment / Licking latency, 45 min after treatment / Licking latency, 60 min after treatment: day 14, oxaliplatin-treated mice; for Licking latency, Pre-test (48 hrs after last oxaliplatin adm.): baseline before treatment, oxaliplatin 2.4 mg/kg i.p., mean of 10 mice
Protocol: The acute oral effect of Moringa oleifera L. seeds extract and purified GMG and GMG-ITC on oxaliplatin induced hyperalgesia in mice (Cold plate test) were evaluated.
The method utilized is a modification of that described by Cavalletti et al. (Cavalletti G. et al., Eur. J. Cancer 37(18), 2457, 2001). Oxaliplatin (2.4 mg/kg) was dissolved in 5% glucose solution and administered i.p. for 5 consecutive days every week for 14 days. On day 14, the test products were suspended in 1% CMC and administered orally. Pregabalin was used, in the same experimental conditions, as a reference active compound at the dose of 15 mg/kg s.c. dissolved in saline.
Pain-related behavior (i.e. lifting and licking of the hind paw) were observed and the time (seconds) of the first sign was recorded.

[1] = group later given 10 mg kg^-1 orally

| Structure (SMILES) | Licking latency, 15 min after treatment (10 mg kg^-1 oral, acute) | Licking latency, 30 min after treatment (10 mg kg^-1 oral, acute) | Licking latency, 45 min after treatment (10 mg kg^-1 oral, acute) | Licking latency, 60 min after treatment (10 mg kg^-1 oral, acute) [s] | Licking latency, Pre-test (48 hrs after last oxaliplatin adm.) [1] [s] | Licking latency, 15 min after treatment (15 mg kg^-1 s.c.) | Licking latency, 30 min after treatment (15 mg kg^-1 s.c.) | Licking latency, 45 min after treatment (15 mg kg^-1 s.c.) | Licking latency, 60 min after treatment (15 mg kg^-1 s.c.) [s] | Licking latency, Pre-test (48 hrs after last oxaliplatin adm.) (group later given 15 mg kg^-1 s.c.) [s] |
| --- | --- | --- | --- | --- | --- | --- | --- | --- | --- | --- |
| C[C@@H]1O[C@@H](Oc2ccc(CN=C=S)cc2)[C@H](O)[C@H](O)[C@H]1O [GMG-ITC, 4-(α-L-rhamnosyloxy)-benzyl isothiocyanate] | 20.9 ± 1.8^^ s | 16.0 ± 0.6^ s | 15.0 ± 1.2^ s | 13.3 ± 2.1 | 10.2 ± 0.4 | – | – | – | – | – |
| C[C@@H]1O[C@@H](Oc2ccc(C/C(=N/OS(=O)(=O)O)S[C@@H]3O[C@H](CO)[C@@H](O)[C@H](O)[C@H]3O)cc2)[C@H](O)[C@H](O)[C@H]1O [GMG, 4-(α-L-rhamnosyloxy)-benzyl glucosinolate] | 21.1 ± 1.9^^ s | 16.2 ± 0.7^ s | 15.1 ± 1.3^ s | 13.5 ± 2.3 | 10.3 ± 0.5 | – | – | – | – | – |
| CC(C)C[C@H](CN)CC(=O)O [pregabalin, reference compound] | – | – | – | – | – | 19.9 ± 1.9^ s | 16.1 ± 0.6^ s | 14.9 ± 1.3^ s | 13.1 ± 2.0 | 11.0 ± 0.7 |
